Drawing on BindingDB's records for PubMed 34147747 (n/a, 2021), this text covers Ki for five compounds.

Assay [1] addresses corticotropin-releasing factor receptor (rat). In words: Binding affinity to rat CRF receptor assessed as inhibition constant.
The nature of assay [2]: Binding affinity to CRF (unknown origin) receptor assessed as inhibition constant.

By Ki is commonly meant the equilibrium dissociation constant of an inhibitor or competing ligand from its target. Regarding `CCCC(C)c1c(CC)nn2c(-c3cc(OC)c(OC)cc3Cl)nc(C)nc12` (stereo not given), the inhibition constant Ki in assay [1] amounted to 2.6 nM.

For the compound `CCCC(CCC)c1c(CC)nn2c(-c3cc(OC)c(OC)cc3Cl)nc(C)nc12`, the Ki in assay [2] is 0.7 nM. For `CCCC(CCC)c1c(CC)nn2c(-c3ccc(Cl)cc3Cl)nc(C)nc12`, the Ki in assay [1] is 1 nM. Same read-out and setting: under `CCCC(COC)c1c(CC)nn2c(-c3ccc(Cl)cc3Cl)nc(C)nc12` (stereo not given) stands 1.4 nM; under `CCCC(COC)c1c(CC)nn2c(-c3cc(OC)c(OC)cc3Cl)nc(C)nc12` (stereo not given), 2 nM.
